Measured values taken from patent US9422297B2, “Tricyclic compounds having cytostatic and/or cytotoxic activity and methods of use thereof” (Duquesne University of the Holy Ghost, priority 2007, dated 2016).

Assays:
SF-295 = test: NCI In-Vitro Testing, CNS Cancer; type: cell-based
Flk-1 kinase = Flk-1 kinase (Homo sapiens (Human), UniProt P35968); test: Flk-1 kinase inhibition; type: biochemical; conditions: Table 3
OVCAR-3 = test: NCI In-Vitro Testing, Ovarian Cancer; type: cell-based
SF-539 = test: NCI In-Vitro Testing, CNS Cancer; type: cell-based
HL-60(TB) = test: NCI In-Vitro Testing, Leukemia; type: cell-based
OVCAR-6 = test: NCI In-Vitro Testing, Ovarian Cancer; type: cell-based
HCT-15 = test: NCI In-Vitro Testing, Colon Cancer; type: cell-based
UO-31 = test: NCI In-Vitro Testing, Renal Cancer; type: cell-based
B16-F10 tumors = test: B16-F10 tumor model in vivo; conditions: athymic mice, 25 mg/kg three times weekly, vs methotrexate and sham
NCI-H322M = test: NCI In-Vitro Testing, Non-Small Cell Lung Cancer; type: cell-based
NCI-H226 = test: NCI In-Vitro Testing, Non-Small Cell Lung Cancer; type: cell-based
SW-620 = test: NCI In-Vitro Testing, Colon Cancer; type: cell-based
MOLT-4 = test: NCI In-Vitro Testing, Leukemia; type: cell-based
OCRF-CEM = test: NCI In-Vitro Testing, Leukemia; type: cell-based
LOXIMVI = test: NCI In-Vitro Testing, Melanoma; type: cell-based
MALME-3M = test: NCI In-Vitro Testing, Melanoma; type: cell-based
EGFR kinase = EGFR kinase (Homo sapiens (Human), UniProt P00533); test: EGFR kinase inhibition; type: biochemical; conditions: Table 3; read-out: EGFR kinase
BT-549 = test: NCI In-Vitro Testing, Breast Cancer; type: cell-based
MDA-MB-435 = test: NCI In-Vitro Testing, Breast Cancer; type: cell-based
HT29 = test: NCI In-Vitro Testing, Colon Cancer; type: cell-based

Chain of EGFR kinase (P00533 25-1210): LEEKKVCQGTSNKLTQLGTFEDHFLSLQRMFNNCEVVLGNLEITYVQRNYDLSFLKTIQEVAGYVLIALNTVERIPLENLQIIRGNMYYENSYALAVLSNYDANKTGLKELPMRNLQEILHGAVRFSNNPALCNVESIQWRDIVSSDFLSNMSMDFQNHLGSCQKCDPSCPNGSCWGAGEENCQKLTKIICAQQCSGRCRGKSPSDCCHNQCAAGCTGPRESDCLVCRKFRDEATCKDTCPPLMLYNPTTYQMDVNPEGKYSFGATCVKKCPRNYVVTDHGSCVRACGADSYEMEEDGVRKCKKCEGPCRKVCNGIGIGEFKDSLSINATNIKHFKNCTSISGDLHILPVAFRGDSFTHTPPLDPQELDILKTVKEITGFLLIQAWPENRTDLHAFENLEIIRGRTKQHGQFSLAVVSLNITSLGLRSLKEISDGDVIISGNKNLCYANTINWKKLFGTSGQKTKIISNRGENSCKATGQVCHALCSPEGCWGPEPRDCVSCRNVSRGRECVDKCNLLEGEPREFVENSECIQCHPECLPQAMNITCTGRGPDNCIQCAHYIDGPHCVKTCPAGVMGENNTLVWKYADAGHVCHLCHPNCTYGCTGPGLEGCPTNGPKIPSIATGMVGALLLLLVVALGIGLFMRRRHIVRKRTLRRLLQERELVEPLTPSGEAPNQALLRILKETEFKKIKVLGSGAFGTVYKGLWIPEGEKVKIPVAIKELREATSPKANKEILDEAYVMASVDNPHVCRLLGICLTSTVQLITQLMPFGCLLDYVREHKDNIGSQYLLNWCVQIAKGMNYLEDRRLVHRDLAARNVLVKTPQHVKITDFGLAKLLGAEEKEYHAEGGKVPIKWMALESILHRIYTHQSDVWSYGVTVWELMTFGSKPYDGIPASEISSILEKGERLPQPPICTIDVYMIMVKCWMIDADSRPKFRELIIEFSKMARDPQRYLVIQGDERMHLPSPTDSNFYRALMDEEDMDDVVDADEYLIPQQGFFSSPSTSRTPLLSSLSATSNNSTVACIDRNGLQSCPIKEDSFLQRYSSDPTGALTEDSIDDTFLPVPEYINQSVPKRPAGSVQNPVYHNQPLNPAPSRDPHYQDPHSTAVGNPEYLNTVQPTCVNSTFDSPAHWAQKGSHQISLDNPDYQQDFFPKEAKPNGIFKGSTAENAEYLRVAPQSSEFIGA
Chain of Flk-1 kinase (P35968 20-1356): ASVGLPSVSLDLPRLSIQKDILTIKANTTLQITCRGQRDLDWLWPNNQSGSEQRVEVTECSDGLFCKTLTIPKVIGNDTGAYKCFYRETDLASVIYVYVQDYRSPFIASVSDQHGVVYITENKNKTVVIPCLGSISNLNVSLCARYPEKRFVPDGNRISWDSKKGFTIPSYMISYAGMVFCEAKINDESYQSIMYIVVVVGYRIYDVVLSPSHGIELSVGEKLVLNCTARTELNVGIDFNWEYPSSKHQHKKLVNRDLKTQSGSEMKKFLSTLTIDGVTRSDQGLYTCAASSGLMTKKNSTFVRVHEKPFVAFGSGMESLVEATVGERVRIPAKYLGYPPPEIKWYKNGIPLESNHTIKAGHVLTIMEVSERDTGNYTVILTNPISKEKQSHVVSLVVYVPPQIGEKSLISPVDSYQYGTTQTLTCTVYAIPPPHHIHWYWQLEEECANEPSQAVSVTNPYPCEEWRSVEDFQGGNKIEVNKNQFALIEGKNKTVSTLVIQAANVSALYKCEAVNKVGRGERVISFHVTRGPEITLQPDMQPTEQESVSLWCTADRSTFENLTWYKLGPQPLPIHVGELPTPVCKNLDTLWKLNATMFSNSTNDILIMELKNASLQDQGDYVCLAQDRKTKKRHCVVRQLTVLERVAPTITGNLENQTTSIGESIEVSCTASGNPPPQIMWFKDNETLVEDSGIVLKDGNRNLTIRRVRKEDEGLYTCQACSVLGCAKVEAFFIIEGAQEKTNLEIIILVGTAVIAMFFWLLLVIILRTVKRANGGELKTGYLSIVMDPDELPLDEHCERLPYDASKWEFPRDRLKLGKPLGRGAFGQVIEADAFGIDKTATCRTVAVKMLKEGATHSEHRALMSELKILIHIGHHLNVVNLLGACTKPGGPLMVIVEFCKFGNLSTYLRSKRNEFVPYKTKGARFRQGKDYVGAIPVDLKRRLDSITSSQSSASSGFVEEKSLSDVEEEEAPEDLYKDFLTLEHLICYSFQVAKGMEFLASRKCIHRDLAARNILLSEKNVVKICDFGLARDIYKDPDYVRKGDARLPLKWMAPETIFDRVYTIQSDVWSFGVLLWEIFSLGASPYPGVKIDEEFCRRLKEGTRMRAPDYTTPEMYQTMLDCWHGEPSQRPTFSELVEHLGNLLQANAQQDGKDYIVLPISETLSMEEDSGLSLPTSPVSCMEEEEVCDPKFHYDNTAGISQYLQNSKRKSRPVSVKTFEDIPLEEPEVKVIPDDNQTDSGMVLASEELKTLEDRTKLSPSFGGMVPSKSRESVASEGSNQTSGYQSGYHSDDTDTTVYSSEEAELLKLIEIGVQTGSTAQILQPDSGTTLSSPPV

## Nc1nc2c(c(Nc3ccc(Cl)cc3)n1)-c1ccccc1C2 [AAG145-136]
SF-295
  GI50: 5.47E−7 Molar
  LC50: >1.00E−4 Molar
  TGI: >1.00E−4 Molar
SF-295; Log10 Concentration −4.0 Molar
  Percent Growth: 17%
SF-295; Log10 Concentration −5.0 Molar
  Percent Growth: 20%
SF-295; Log10 Concentration −6.0 Molar
  Percent Growth: 34%
SF-295; Log10 Concentration −7.0 Molar
  Percent Growth: 95%
SF-295; Log10 Concentration −8.0 Molar
  Percent Growth: 105%
Flk-1 kinase
  IC50: > 200 µM
OVCAR-3
  GI50: 2.48E−6 Molar
  LC50: >1.00E−4 Molar
  TGI: >1.00E−4 Molar
OVCAR-3; Log10 Concentration −4.0 Molar
  Percent Growth: 14%
OVCAR-3; Log10 Concentration −5.0 Molar
  Percent Growth: 22%
OVCAR-3; Log10 Concentration −6.0 Molar
  Percent Growth: 66%
OVCAR-3; Log10 Concentration −7.0 Molar
  Percent Growth: 86%
OVCAR-3; Log10 Concentration −8.0 Molar
  Percent Growth: 91%
SF-539
  GI50: 3.81E−7 Molar
  LC50: >1.00E−4 Molar
  TGI: >1.00E−4 Molar
SF-539; Log10 Concentration −4.0 Molar
  Percent Growth: 2%
SF-539; Log10 Concentration −5.0 Molar
  Percent Growth: 20%
SF-539; Log10 Concentration −6.0 Molar
  Percent Growth: 31%
SF-539; Log10 Concentration −7.0 Molar
  Percent Growth: 77%
SF-539; Log10 Concentration −8.0 Molar
  Percent Growth: 101%
HL-60(TB)
  GI50: 1.50E−7 Molar
  LC50: >1.00E−4 Molar
  TGI: >1.00E−4 Molar
HL-60(TB); Log10 Concentration −4.0 Molar
  Percent Growth: 12%
HL-60(TB); Log10 Concentration −5.0 Molar
  Percent Growth: 13%
HL-60(TB); Log10 Concentration −6.0 Molar
  Percent Growth: 23%
HL-60(TB); Log10 Concentration −7.0 Molar
  Percent Growth: 56%
HL-60(TB); Log10 Concentration −8.0 Molar
  Percent Growth: 87%
OVCAR-6
  GI50: 2.16E−7 Molar
  LC50: >1.00E−4 Molar
  TGI: >1.00E−4 Molar
OVCAR-6; Log10 Concentration −4.0 Molar
  Percent Growth: 18%
OVCAR-6; Log10 Concentration −5.0 Molar
  Percent Growth: 25%
OVCAR-6; Log10 Concentration −6.0 Molar
  Percent Growth: 36%
OVCAR-6; Log10 Concentration −7.0 Molar
  Percent Growth: 57%
OVCAR-6; Log10 Concentration −8.0 Molar
  Percent Growth: 102%
HCT-15
  GI50: 4.34E−7 Molar
  LC50: >1.00E−4 Molar
  TGI: 1.22E−5 Molar
HCT-15; Log10 Concentration −4.0 Molar
  Percent Growth: −39%
HCT-15; Log10 Concentration −5.0 Molar
  Percent Growth: 4%
HCT-15; Log10 Concentration −6.0 Molar
  Percent Growth: 29%
HCT-15; Log10 Concentration −7.0 Molar
  Percent Growth: 68%
HCT-15; Log10 Concentration −8.0 Molar
  Percent Growth: 94%
UO-31
  GI50: 7.90E−7 Molar
  LC50: >1.00E−4 Molar
  TGI: >1.00E−4 Molar
UO-31; Log10 Concentration −4.0 Molar
  Percent Growth: 31%
UO-31; Log10 Concentration −5.0 Molar
  Percent Growth: 31%
UO-31; Log10 Concentration −6.0 Molar
  Percent Growth: 46%
UO-31; Log10 Concentration −7.0 Molar
  Percent Growth: 88%
UO-31; Log10 Concentration −8.0 Molar
  Percent Growth: 105%
B16-F10 tumors
  antitumor activity (tumor volume, tumor growth rate): potent antitumor activity
NCI-H322M
  GI50: 1.35E−6 Molar
  LC50: >1.00E−4 Molar
  TGI: >1.00E−4 Molar
NCI-H322M; Log10 Concentration −4.0 Molar
  Percent Growth: 39%
NCI-H322M; Log10 Concentration −5.0 Molar
  Percent Growth: 32%
NCI-H322M; Log10 Concentration −6.0 Molar
  Percent Growth: 53%
NCI-H322M; Log10 Concentration −7.0 Molar
  Percent Growth: 101%
NCI-H322M; Log10 Concentration −8.0 Molar
  Percent Growth: 103%
NCI-H226
  GI50: 2.14E−6 Molar
  LC50: >1.00E−4 Molar
  TGI: >1.00E−4 Molar
NCI-H226; Log10 Concentration −4.0 Molar
  Percent Growth: 14%
NCI-H226; Log10 Concentration −5.0 Molar
  Percent Growth: 36%
NCI-H226; Log10 Concentration −6.0 Molar
  Percent Growth: 57%
NCI-H226; Log10 Concentration −7.0 Molar
  Percent Growth: 97%
NCI-H226; Log10 Concentration −8.0 Molar
  Percent Growth: 98%
SW-620
  GI50: 6.30E−8 Molar
  LC50: >1.00E−4 Molar
  TGI: >1.00E−4 Molar
SW-620; Log10 Concentration −4.0 Molar
  Percent Growth: 10%
SW-620; Log10 Concentration −5.0 Molar
  Percent Growth: 10%
SW-620; Log10 Concentration −6.0 Molar
  Percent Growth: 15%
SW-620; Log10 Concentration −7.0 Molar
  Percent Growth: 39%
SW-620; Log10 Concentration −8.0 Molar
  Percent Growth: 92%
MOLT-4
  GI50: 6.61E−8 Molar
  LC50: >1.00E−4 Molar
  TGI: >1.00E−4 Molar
MOLT-4; Log10 Concentration −4.0 Molar
  Percent Growth: 21%
MOLT-4; Log10 Concentration −5.0 Molar
  Percent Growth: 11%
MOLT-4; Log10 Concentration −6.0 Molar
  Percent Growth: 14%
MOLT-4; Log10 Concentration −7.0 Molar
  Percent Growth: 39%
MOLT-4; Log10 Concentration −8.0 Molar
  Percent Growth: 99%
OCRF-CEM
  GI50: 3.12E−6 Molar
  LC50: >1.00E−4 Molar
  TGI: >1.00E−4 Molar
OCRF-CEM; Log10 Concentration −4.0 Molar
  Percent Growth: 11%
OCRF-CEM; Log10 Concentration −5.0 Molar
  Percent Growth: 6%
OCRF-CEM; Log10 Concentration −6.0 Molar
  Percent Growth: 8%
OCRF-CEM; Log10 Concentration −7.0 Molar
  Percent Growth: 22%
OCRF-CEM; Log10 Concentration −8.0 Molar
  Percent Growth: 77%
LOXIMVI
  GI50: 3.08E−7 Molar
  LC50: >1.00E−4 Molar
  TGI: >1.00E−4 Molar
LOXIMVI; Log10 Concentration −4.0 Molar
  Percent Growth: 15%
LOXIMVI; Log10 Concentration −5.0 Molar
  Percent Growth: 11%
LOXIMVI; Log10 Concentration −6.0 Molar
  Percent Growth: 16%
LOXIMVI; Log10 Concentration −7.0 Molar
  Percent Growth: 52%
LOXIMVI; Log10 Concentration −8.0 Molar
  Percent Growth: 106%
MALME-3M
  GI50: >1.00E−4 Molar
  LC50: >1.00E−4 Molar
  TGI: >1.00E−4 Molar
MALME-3M; Log10 Concentration −4.0 Molar
  Percent Growth: 78%
MALME-3M; Log10 Concentration −5.0 Molar
  Percent Growth: 64%
MALME-3M; Log10 Concentration −6.0 Molar
  Percent Growth: 106%
MALME-3M; Log10 Concentration −7.0 Molar
  Percent Growth: 97%
MALME-3M; Log10 Concentration −8.0 Molar
  Percent Growth: 96%
EGFR kinase
  IC50: 26 µM
BT-549
  GI50: 2.83E−6 Molar
  LC50: >1.00E−4 Molar
  TGI: 7.58E−5 Molar
BT-549; Log10 Concentration −4.0 Molar
  Percent Growth: −4%
BT-549; Log10 Concentration −5.0 Molar
  Percent Growth: 32%
BT-549; Log10 Concentration −6.0 Molar
  Percent Growth: 65%
BT-549; Log10 Concentration −7.0 Molar
  Percent Growth: 85%
BT-549; Log10 Concentration −8.0 Molar
  Percent Growth: 103%
MDA-MB-435
  GI50: 5.54E−7 Molar
  LC50: >1.00E−4 Molar
  TGI: >1.00E−4 Molar
MDA-MB-435; Log10 Concentration −4.0 Molar
  Percent Growth: 33%
MDA-MB-435; Log10 Concentration −5.0 Molar
  Percent Growth: 20%
MDA-MB-435; Log10 Concentration −6.0 Molar
  Percent Growth: 31%
MDA-MB-435; Log10 Concentration −7.0 Molar
  Percent Growth: 104%
MDA-MB-435; Log10 Concentration −8.0 Molar
  Percent Growth: 104%
HT29
  GI50: 9.39E−8 Molar
  LC50: >1.00E−4 Molar
  TGI: >1.00E−4 Molar
HT29; Log10 Concentration −4.0 Molar
  Percent Growth: 2%
HT29; Log10 Concentration −5.0 Molar
  Percent Growth: 7%
HT29; Log10 Concentration −6.0 Molar
  Percent Growth: 21%
HT29; Log10 Concentration −7.0 Molar
  Percent Growth: 49%
HT29; Log10 Concentration −8.0 Molar
  Percent Growth: 94%
